System: PRISM DNA-barcoded human tumour cell lines
Test: PRISM pooled cell viability assay;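 on PRISM AUC: 8 threefold dilutions from 10 µM with 5 days of exposure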
Assay type: cell-based
Parameters: AUC (PRISM viability) / AUC (PRISM): unit not given beside the values
Conditions: for AUC (PRISM viability): WT; for PRISM AUC: KRAS MUT
Experimental: Cells were then lysed in TCL mRNA lysis buffer, and then PCR with reverse transcription was performed. Detection of the barcodes and univariate and multivariate analysis was then performed as previously described. Data analysis is described in the Supplementary Methods. Up-to-date code for our analysis is at the github link: https://github.com/cmap/dockerized_mts.
For every gene with non-silent mutations in at least four cell-lines, we compared the AUC values between cells with and without those mutations using a t-test. This analysis was carried out for: (i) the full dataset; (ii) excluding cell lines with non-silent KRAS mutations; and (iii) excluding cell lines that have either KRAS or NRAS non-silent mutations.

## CCn1c(-c2cc(N3CCN(C4CC4)CC3)cnc2[C@H](C)OC)c2c3cc(ccc31)-c1csc(n1)C[C@H](NC(=O)[C@H]1[C@@H]3COC[C@@H]31)C(=O)N1CCC[C@H](N1)C(=O)OCC(C)(C)C2 [RMC-7977]
SCC25_UPPER_AERODIGESTIVE_TRACT
  AUC (PRISM viability): 0.3367
SCLC21H_LUNG
  AUC (PRISM viability): 0.9496
SEM_HAEMATOPOIETIC_AND_LYMPHOID_TISSUE
  AUC (PRISM viability): 0.8793
SF126_CENTRAL_NERVOUS_SYSTEM
  AUC (PRISM viability): 0.7112
SF295_CENTRAL_NERVOUS_SYSTEM
  AUC (PRISM viability): 0.7908
SF539_CENTRAL_NERVOUS_SYSTEM
  AUC (PRISM viability): 0.7182
SH4_SKIN
  AUC (PRISM viability): 0.8584
SH10TC_STOMACH
  PRISM AUC: 0.4138
SHP77_LUNG
  PRISM AUC: 0.4654
SIMA_AUTONOMIC_GANGLIA
  AUC (PRISM viability): 0.5854
SKES1_BONE
  AUC (PRISM viability): 0.8807
SKHEP1_LIVER
  AUC (PRISM viability): 0.7844
SKLMS1_SOFT_TISSUE
  AUC (PRISM viability): 0.3954
SKLU1_LUNG
  PRISM AUC: 0.1796
SKMEL3_SKIN
  AUC (PRISM viability): 1
SKMEL5_SKIN
  AUC (PRISM viability): 0.8492
SKMEL24_SKIN
  AUC (PRISM viability): 0.8551
SKMEL28_SKIN
  AUC (PRISM viability): 0.8799
SKMEL30_SKIN
  AUC (PRISM viability): 0.2141
SKMES1_LUNG
  AUC (PRISM viability): 0.4907
SKNAS_AUTONOMIC_GANGLIA
  AUC (PRISM viability): 0.2639
SKNBE2_AUTONOMIC_GANGLIA
  AUC (PRISM viability): 0.4969
SKNDZ_AUTONOMIC_GANGLIA
  AUC (PRISM viability): 0.7338
SKNMC_BONE
  AUC (PRISM viability): 0.8913
SKNO1_HAEMATOPOIETIC_AND_LYMPHOID_TISSUE
  AUC (PRISM viability): 0.4958
SKOV3_OVARY
  AUC (PRISM viability): 0.8555
SKUT1_SOFT_TISSUE
  AUC (PRISM viability): 0.8493
SNB75_CENTRAL_NERVOUS_SYSTEM
  AUC (PRISM viability): 0.7551
SNGM_ENDOMETRIUM
  PRISM AUC: 0.5073
SNU1_STOMACH
  PRISM AUC: 0.47
SNU46_UPPER_AERODIGESTIVE_TRACT
  AUC (PRISM viability): 0.6229
SNU61_LARGE_INTESTINE
  PRISM AUC: 0.1577
SNU182_LIVER
  AUC (PRISM viability): 1
SNU201_CENTRAL_NERVOUS_SYSTEM
  AUC (PRISM viability): 0.8111
SNU213_PANCREAS
  PRISM AUC: 0.2216
SNU216_STOMACH
  AUC (PRISM viability): 0.4345
SNU245_BILIARY_TRACT
  AUC (PRISM viability): 0.5897
SNU308_BILIARY_TRACT
  AUC (PRISM viability): 0.4973
SNU398_LIVER
  AUC (PRISM viability): 0.9232
SNU407_LARGE_INTESTINE
  PRISM AUC: 0.42
SNU410_PANCREAS
  PRISM AUC: 0.5771
SNU423_LIVER
  AUC (PRISM viability): 0.6851
SNU449_LIVER
  AUC (PRISM viability): 0.7416
SNU466_CENTRAL_NERVOUS_SYSTEM
  AUC (PRISM viability): 0.3575
SNU489_CENTRAL_NERVOUS_SYSTEM
  AUC (PRISM viability): 0.8437
SNU601_STOMACH
  PRISM AUC: 0.2276
SNU685_ENDOMETRIUM
  AUC (PRISM viability): 0.8482
SNU719_STOMACH
  AUC (PRISM viability): 0.2772
SNU761_LIVER
  AUC (PRISM viability): 0.9921
SNU840_OVARY
  AUC (PRISM viability): 0.3829
SNU869_BILIARY_TRACT
  PRISM AUC: 0.3809
SNU878_LIVER
  AUC (PRISM viability): 0.7757
SNU886_LIVER
  AUC (PRISM viability): 0.4222
SNU899_UPPER_AERODIGESTIVE_TRACT
  AUC (PRISM viability): 0.2281
SNU1076_UPPER_AERODIGESTIVE_TRACT
  AUC (PRISM viability): 0.2341
SNU1077_ENDOMETRIUM
  AUC (PRISM viability): 0.9228
SNU1079_BILIARY_TRACT
  AUC (PRISM viability): 0.7613
SNU1105_CENTRAL_NERVOUS_SYSTEM
  AUC (PRISM viability): 0.4704
SNU1196_BILIARY_TRACT
  AUC (PRISM viability): 0.9637
SNU1214_UPPER_AERODIGESTIVE_TRACT
  AUC (PRISM viability): 0.179
SNUC2A_LARGE_INTESTINE
  PRISM AUC: 0.7905
SNUC4_LARGE_INTESTINE
  AUC (PRISM viability): 0.612
SQ1_LUNG
  AUC (PRISM viability): 0.3633
SR786_HAEMATOPOIETIC_AND_LYMPHOID_TISSUE
  AUC (PRISM viability): 0.6127
SUIT2_PANCREAS
  PRISM AUC: 0.4229
SW480_LARGE_INTESTINE
  PRISM AUC: 0.2548
SW579_THYROID
  AUC (PRISM viability): 0.4828
SW620_LARGE_INTESTINE
  PRISM AUC: 0.1434
SW780_URINARY_TRACT
  AUC (PRISM viability): 0.559
SW900_LUNG
  PRISM AUC: 0.3401
SW1088_CENTRAL_NERVOUS_SYSTEM
  AUC (PRISM viability): 0.6279
SW1271_LUNG
  AUC (PRISM viability): 0.5768
SW1353_BONE
  AUC (PRISM viability): 0.841
SW1710_URINARY_TRACT
  AUC (PRISM viability): 0.7469
SW1783_CENTRAL_NERVOUS_SYSTEM
  AUC (PRISM viability): 0.7461
SW1990_PANCREAS
  PRISM AUC: 0.4703
T3M10_LUNG
  PRISM AUC: 0.7347
T24_URINARY_TRACT
  AUC (PRISM viability): 0.4656
T47D_BREAST
  AUC (PRISM viability): 0.8281
T84_LARGE_INTESTINE
  PRISM AUC: 0.5086
T98G_CENTRAL_NERVOUS_SYSTEM
  AUC (PRISM viability): 0.6265
TALL1_HAEMATOPOIETIC_AND_LYMPHOID_TISSUE
  AUC (PRISM viability): 0.6203
TC32_BONE
  AUC (PRISM viability): 0.7163
TC71_BONE
  AUC (PRISM viability): 0.7602
TCCPAN2_PANCREAS
  PRISM AUC: 0.4522
TCCSUP_URINARY_TRACT
  AUC (PRISM viability): 0.7623
TE1_OESOPHAGUS
  AUC (PRISM viability): 0.7271
TE5_OESOPHAGUS
  AUC (PRISM viability): 0.4124
TE6_OESOPHAGUS
  AUC (PRISM viability): 0.4273
TE8_OESOPHAGUS
  AUC (PRISM viability): 0.499
TE9_OESOPHAGUS
  AUC (PRISM viability): 0.6448
TE10_OESOPHAGUS
  AUC (PRISM viability): 0.472
TE11_OESOPHAGUS
  AUC (PRISM viability): 0.5416
TE14_OESOPHAGUS
  AUC (PRISM viability): 0.4491
TE15_OESOPHAGUS
  AUC (PRISM viability): 0.2922
TE617T_SOFT_TISSUE
  AUC (PRISM viability): 0.2711
TF1_HAEMATOPOIETIC_AND_LYMPHOID_TISSUE
  AUC (PRISM viability): 0.2378
THP1_HAEMATOPOIETIC_AND_LYMPHOID_TISSUE
  AUC (PRISM viability): 0.3541
TM31_CENTRAL_NERVOUS_SYSTEM
  AUC (PRISM viability): 0.8811
TOV21G_OVARY
  PRISM AUC: 0.5751
TOV112D_OVARY
  AUC (PRISM viability): 0.6714
TT2609C02_THYROID
  AUC (PRISM viability): 0.2965
TT_OESOPHAGUS
  AUC (PRISM viability): 0.5096
TT_THYROID
  AUC (PRISM viability): 1
TUHR4TKB_KIDNEY
  AUC (PRISM viability): 1
TYKNU_OVARY
  AUC (PRISM viability): 0.2088
U2OS_BONE
  AUC (PRISM viability): 0.5581
U87MG_CENTRAL_NERVOUS_SYSTEM
  AUC (PRISM viability): 0.5899
U118MG_CENTRAL_NERVOUS_SYSTEM
  AUC (PRISM viability): 0.8323
U178_CENTRAL_NERVOUS_SYSTEM
  AUC (PRISM viability): 0.6826
U251MG_CENTRAL_NERVOUS_SYSTEM
  AUC (PRISM viability): 0.531
U343_CENTRAL_NERVOUS_SYSTEM
  AUC (PRISM viability): 0.5615
U937_HAEMATOPOIETIC_AND_LYMPHOID_TISSUE
  AUC (PRISM viability): 0.5098
UACC62_SKIN
  AUC (PRISM viability): 0.8484
UACC257_SKIN
  AUC (PRISM viability): 0.9461
UMUC1_URINARY_TRACT
  AUC (PRISM viability): 0.3417
UO31_KIDNEY
  AUC (PRISM viability): 0.7674
VMCUB1_URINARY_TRACT
  AUC (PRISM viability): 0.3401
VMRCRCW_KIDNEY
  AUC (PRISM viability): 0.6728
VMRCRCZ_KIDNEY
  AUC (PRISM viability): 0.8522
WM88_SKIN
  AUC (PRISM viability): 0.8971
WM793_SKIN
  AUC (PRISM viability): 0.8157
WM983B_SKIN
  AUC (PRISM viability): 0.8254
WM1799_SKIN
  AUC (PRISM viability): 0.8407
WM2664_SKIN
  AUC (PRISM viability): 1
WSUDLCL2_HAEMATOPOIETIC_AND_LYMPHOID_TISSUE
  AUC (PRISM viability): 0.6176
YAPC_PANCREAS
  PRISM AUC: 0.2462
YD8_UPPER_AERODIGESTIVE_TRACT
  PRISM AUC: 0.7835
YD10B_UPPER_AERODIGESTIVE_TRACT
  AUC (PRISM viability): 0.2966
YD15_SALIVARY_GLAND
  AUC (PRISM viability): 0.5241
YD38_UPPER_AERODIGESTIVE_TRACT
  AUC (PRISM viability): 0.2157
YH13_CENTRAL_NERVOUS_SYSTEM
  AUC (PRISM viability): 0.7662
YKG1_CENTRAL_NERVOUS_SYSTEM
  AUC (PRISM viability): 0.6011
ZR751_BREAST
  AUC (PRISM viability): 0.8548
